Two molecules from patent US20260347337A1, “MICROBIOCIDAL PYRAZOLE DERIVATIVES” (priority 2022, published 2026) can be followed below.

In one assay the test system is Plasmopara viticola. It is filed as in vivo. The note with it: 200 ppm; grape vine leaf disks; preventative, inoculated 1 day after application; assessed 6-8 days after application.
The test system of the next assay is Phytophthora infestans. It is filed as in vivo. The note with it: 200 ppm; tomato leaf disks; preventative, inoculated 1 day after application; assessed 5-7 days after application.
The test system of assay [1] is Blumeria graminis f. sp. tritici (Erysiphe graminis f. sp. tritici). Kind of assay: Blumeria graminis f. sp. tritici/wheat/leaf disc preventative (powdery mildew on wheat). The note with it: 200 ppm, wheat leaf segments cv. Kanzler, inoculated 1 day after application, assessed 6-8 days after application. It is filed as in vivo. The procedure:
Example B4: Blumeria graminis f. Sp. Tritici (Erysiphe graminis f. Sp. Tritici)/Wheat/Leaf Disc Preventative (Powdery Mildew on Wheat)
Wheat leaf segments cv. Kanzler are placed on agar in a multiwell plate (24-well format) and sprayed with the formulated test compound diluted in water. The leaf disks are inoculated by shaking powdery mildew infected plants above the test plates 1 day after application. The inoculated leaf disks are incubated at 20° C. and 60% rh under a light regime of 24 h darkness followed by 12 h light/12 h darkness in a climate chamber and the activity of a compound is assessed as percent disease control compared to untreated when an appropriate level of disease damage appears on untreated check leaf segments (6-8 days after application).

In assay [2] the test system is Mycosphaerella graminicola (Septoria tritici). Kind of assay: Mycosphaerella graminicola (Septoria tritici)/liquid culture (Septoria blotch), inhibition of growth. Type of assay: cell-based. The note with it: Zymoseptoria tritici, liquid culture, PDB, 24° C., 4-5 days after application, read-out: control of Mycosphaerella graminicola (inhibition of growth vs untreated). On the procedure: Example B12: Mycosphaerella graminicola (Septoria tritici)/Liquid Culture (Septoria Blotch)
(§1) Conidia of the fungus from cryogenic storage are directly mixed into nutrient broth (PDB potato dextrose broth). After placing a (DMSO) solution of test compound into a microtiter plate (96-well format), the nutrient broth containing the fungal spores is added. The test plates are incubated at 24° C. and the inhibition of growth is determined photometrically 4-5 days after application.

The next assay concerns Alternaria solani. Kind of assay: Alternaria solani/tomato/leaf disc (early blight). Type of assay: in vivo. The note with it: 200 ppm; tomato leaf disks cv. Baby; inoculated 2 days after application; assessed 5-7 days after application. On the procedure:
Example B1: Alternaria solani/Tomato/Leaf Disc (Early Blight)
Tomato leaf disks cv. Baby are placed on agar in multiwell plates (24-well format) and sprayed with the formulated test compound diluted in water. The leaf disks are inoculated with a spore suspension of the fungus 2 days after application. The inoculated leaf disks are incubated at 23° C./21° C. (day/night) and 80% rh under a light regime of 12/12 h (light/dark) in a climate cabinet and the activity of a compound is assessed as percent disease control compared to untreated when an appropriate level of disease damage appears on untreated check disk leaf disks (5-7 days after application).

Assay [3] deals with Botryotinia fuckeliana (Botrytis cinerea). Kind of assay: Botryotinia fuckeliana (Botrytis cinerea)/liquid culture (gray mould), inhibition of growth. It is filed as cell-based. The note with it: liquid culture, Vogels broth, 24° C., 3-4 days after application, read-out: control of Botryotinia fuckeliana (inhibition of growth vs untreated). On the procedure: Example B2: Botryotinia fuckeliana (Botrytis cinerea)/Liquid Culture (Gray Mould)
Conidia of the fungus from cryogenic storage are directly mixed into nutrient broth (Vogels broth). After placing a (DMSO) solution of test compound into a microtiter plate (96-well format), the nutrient broth containing the fungal spores is added. The test plates are incubated at 24° C. and the inhibition of growth is determined photometrically 3-4 days after application.

For assay [4], the system named is Glomerella lagenarium (Colletotrichum lagenarium). Kind of assay: Glomerella lagenarium (Colletotrichum lagenarium)/liquid culture (anthracnose), inhibition of growth. Type of assay: cell-based. The note with it: Colletotrichum orbiculare, liquid culture, PDB, 24° C., 3-4 days after application, read-out: control of Glomerella lagenarium (inhibition of growth vs untreated). On the procedure:
Example B3: Glomerella lagenarium (Colletotrichum lagenarium)/Liquid Culture (Anthracnose)
Conidia of the fungus from cryogenic storage are directly mixed into nutrient broth (PDB potato dextrose broth). After placing a (DMSO) solution of test compound into a microtiter plate (96-well format), the nutrient broth containing the fungal spores is added. The test plates are incubated at 24° C. and the inhibition of growth is measured photometrically 3-4 days after application.

Assay [5] has as its system Gibberella zeae (Fusarium graminearum). It is filed as in vivo. The note with it: 200 ppm; wheat spikelets cv. Monsun; preventative, inoculated 1 day after application; assessed 6-8 days after application.
In the next assay the test system is Pyrenophora teres. Kind of assay: Pyrenophora teres/barley/leaf disc preventative (net blotch). It is filed as in vivo. The conditions noted are these: 200 ppm, barley leaf segments cv. Hasso, inoculated 2 days after application, assessed 5-7 days after application. On the procedure:
Example B10: Pyrenophora teres/Barley/Leaf Disc Preventative (Net Blotch)
Barley leaf segments cv. Hasso are placed on agar in a multiwell plate (24-well format) and sprayed with the formulated test compound diluted in water. The leaf segments are inoculated with a spore suspension of the fungus 2 days after application. The inoculated leaf segments are incubated at 20° C. and 65% rh under a light regime of 12 h light/12 h darkness in a climate cabinet and the activity of a compound is assessed as disease control compared to untreated when an appropriate level of disease damage appears in untreated check leaf segments (5-7 days after application).

The subject of the next assay is Fusarium culmorum. Kind of assay: microbe, parasite or virus in culture. Type of assay: cell-based. The conditions noted are these: read-out: control of Fusarium culmorum (inhibition of growth vs untreated).
Assay [6] concerns Monographella nivalis (Microdochium nivale). Kind of assay: Monographella nivalis (Microdochium nivale)/liquid culture (foot rot cereals), inhibition of growth. It is filed as cell-based. The conditions noted are these: liquid culture, PDB, 24° C., 4-5 days after application, read-out: control of Monographella nivalis (inhibition of growth vs untreated). On the procedure: Example B8: Monographella nivalis (Microdochium nivale)/Liquid Culture (Foot Rot Cereals)
as §1

The subject of assay [7] is Phaeosphaeria nodorum (Septoria nodorum). Kind of assay: Phaeosphaeria nodorum (Septoria nodorum)/wheat/leaf disc preventative (glume blotch). It is filed as in vivo. The note with it: 200 ppm, wheat leaf segments cv. Kanzler, inoculated 2 days after application, assessed 5-7 days after application. On the procedure: Example B7: Phaeosphaeria nodorum (Septoria nodorum)/Wheat/Leaf Disc Preventative (Glume Blotch)
Wheat leaf segments cv. Kanzler are placed on agar in a multiwell plate (24-well format) and sprayed with the formulated test compound diluted in water. The leaf disks are inoculated with a spore suspension of the fungus 2 days after application. The inoculated test leaf disks are incubated at 20° C. and 75% rh under a light regime of 12 h light/12 h darkness in a climate cabinet and the activity of a compound is assessed as percent disease control compared to untreated when an appropriate level of disease damage appears in untreated check leaf disks (5-7 days after application).

For assay [8], the system named is Mycosphaerella arachidis (Cercospora arachidicola). Kind of assay: Mycosphaerella arachidis (Cercospora arachidicola)/liquid culture (early leaf spot), inhibition of growth. The conditions noted are these: liquid culture, PDB, 24° C., 4-5 days after application, read-out: control of Mycosphaerella arachidis (inhibition of growth vs untreated). Type of assay: cell-based. The procedure:
Example B9: Mycosphaerella arachidis (Cercospora arachidicola)/Liquid Culture (Early Leaf Spot)
as §1

Each structure is given as a SMILES string.

Turning to `Cn1cc(C(C)(CNC(=O)c2cnn(-c3ccc(F)cc3F)n2)c2cccc(C#N)n2)cn1` (centres unmarked) [Compound P-2, N-[2-(6-cyano-2-pyridyl)-2-(1-methylpyrazol-4-yl)propyl]-2-(2,4-difluorophenyl)triazole-4-carboxamide], in the assay on Plasmopara viticola, the “control of Plasmopara viticola (percent disease control compared to untreated)” value was “at least 80%”. The “control of Phytophthora infestans (percent disease control compared to untreated)” value with Phytophthora infestans is given as “at least 80%”. Further, the “control of Blumeria graminis f. sp. tritici (percent disease control compared to untreated)” value in [1] was “at least 80%”.

What is called inhibition of growth is the drop in the measured response relative to a control, in per cent. On to `Cn1cc(C(C)(CNC(=O)c2cn(-c3ncc(F)cc3F)nn2)c2cccc(Cl)n2)cn1` (centres unmarked) [Compound P-7, N-[2-(6-chloro-2-pyridyl)-2-(1-methylpyrazol-4-yl)propyl]-1-(3,5-difluoro-2-pyridyl)triazole-4-carboxamide], for which the inhibition of growth at 20 ppm (in assay [2]; in [3]; in assay [4]; in the assay on Fusarium culmorum; in assay [6]; in assay [8]) was at least 80% in each case. Besides, the “control of Alternaria solani (percent disease control compared to untreated)” value in the assay on Alternaria solani is on record as “at least 80%”. Also, the “control of Gibberella zeae (percent disease control compared to untreated)” value in assay [5] was “at least 80%”. The “control of Pyrenophora teres (disease control compared to untreated)” value in the assay with Pyrenophora teres is listed as “at least 80%”. The “control of Phaeosphaeria nodorum (percent disease control compared to untreated)” value in assay [7] is reported as “at least 80%”. Besides, the “control of Blumeria graminis f. sp. tritici (percent disease control compared to untreated)” value in assay [1] was “at least 80%”.
